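How tested: cells in 96-well plates exposed to compound for 48 hours at five concentrations. Here, GI50 denotes the concentration required for 50% inhibition of growth.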 Active and inactive are the calls of the source. Cut-off read from the data, not from the text of the source: active = GI50 up to about 1.1 µM and inactive = higher.
Tests used:
Experiment in all cases: NCI tumour cell line growth inhibition, 48 h
SF-295 = system: SF-295
HOP-62 = system: HOP-62
UACC-62 = system: UACC-62
HOP-92 = system: HOP-92
U-251 = system: U-251
OVCAR-3 = system: OVCAR-3
SF-539 = system: SF-539
CCRF-CEM = system: CCRF-CEM
A549 = system: A549
NCI-H23 = system: NCI-H23
NCI-H460 = system: NCI-H460
LOX IMVI = system: LOX IMVI
KM12 = system: KM12
NCI/ADR-RES = system: NCI/ADR-RES
T47D = system: T47D
MDA-MB-231 = system: MDA-MB-231
PC-3 = system: PC-3
MDA-MB-435 = system: MDA-MB-435
DU-145 = system: DU-145

Compound | GI50 (SF-295) | GI50 (HOP-62) | GI50 (UACC-62) | GI50 (HOP-92) | GI50 (U-251) | GI50 (OVCAR-3) | GI50 (SF-539) | GI50 (CCRF-CEM) | GI50 (A549) | GI50 (NCI-H23) | GI50 (NCI-H460) | GI50 (LOX IMVI) | GI50 (KM12) | GI50 (NCI/ADR-RES) | GI50 (T47D) | GI50 (MDA-MB-231) | GI50 (PC-3) | GI50 (MDA-MB-435) | GI50 (DU-145)
CCCCCCC(O)CC[C@H]1CCC[C@@H](C)N1 (some centres not stated) | > 31.6 µM (inactive) | > 31.6 µM (inactive) | 72.6 µM (inactive) | > 100 µM (inactive) | > 31.6 µM (inactive) | > 10 µM (inactive) | > 100 µM (inactive) | > 100 µM (inactive) | > 100 µM (inactive) | > 10 µM (inactive) | > 100 µM (inactive) | > 100 µM (inactive) | > 10 µM (inactive) |  |  |  |  |  | 
O=S(=O)(N/N=C/c1ccc(/C=N/NS(=O)(=O)c2ccccc2)cc1)c1ccccc1 | 15.5 µM (inactive) | 44.9 µM (inactive) | 24.9 µM (inactive) | 31.8 µM (inactive) | 41 µM (inactive) | 30.7 µM (inactive) | 29 µM (inactive) | 30.3 µM (inactive) | 77.6 µM (inactive) | 35.2 µM (inactive) | 49.9 µM (inactive) | 16 µM (inactive) | 35.8 µM (inactive) |  |  |  |  |  | 
CC1=NN(C(=O)Cc2ccccc2)C(=O)/C1=C\c1ccccc1O | > 100 µM (inactive) | > 100 µM (inactive) | > 100 µM (inactive) | > 100 µM (inactive) | > 100 µM (inactive) | > 100 µM (inactive) | > 100 µM (inactive) | > 100 µM (inactive) | > 100 µM (inactive) | > 100 µM (inactive) | > 100 µM (inactive) | > 100 µM (inactive) | > 100 µM (inactive) |  |  |  |  |  | 
CN1CCCc2nc3ccccc3n2C1 | > 100 µM (inactive) | > 100 µM (inactive) | > 100 µM (inactive) | > 100 µM (inactive) | > 100 µM (inactive) | > 100 µM (inactive) | > 100 µM (inactive) | 88.3 µM (inactive) | > 100 µM (inactive) | > 100 µM (inactive) | > 100 µM (inactive) | > 100 µM (inactive) | > 100 µM (inactive) |  |  |  |  |  | 
Cc1cccc(C)c1NC(=O)C(=O)C(C#N)c1ccccc1 (configuration not stated) | > 100 µM (inactive) | > 100 µM (inactive) | > 100 µM (inactive) | > 100 µM (inactive) | > 100 µM (inactive) | > 100 µM (inactive) | > 100 µM (inactive) | > 100 µM (inactive) | > 100 µM (inactive) | > 100 µM (inactive) | > 100 µM (inactive) | > 100 µM (inactive) | > 100 µM (inactive) |  |  |  |  |  | 
O=C(COc1ccc(Cl)c(Cl)c1)N(Cc1ccccc1)Cc1ccc[n+](Cc2ccc(Cl)cc2S(=O)(=O)F)c1 | > 100 µM (inactive) | > 100 µM (inactive) | 62.1 µM (inactive) | 50.8 µM (inactive) | 25.8 µM (inactive) | 65.5 µM (inactive) | 12.9 µM (inactive) |  | > 100 µM (inactive) | 41.3 µM (inactive) | > 100 µM (inactive) |  | 23.4 µM (inactive) | > 100 µM (inactive) | 59.7 µM (inactive) | 14.8 µM (inactive) | > 100 µM (inactive) | 29.9 µM (inactive) | > 100 µM (inactive)
Nn1c(S)nnc1-c1ccccc1Nc1ccccc1-c1nnc(S)n1N | > 50 µM (inactive) | > 50 µM (inactive) | > 50 µM (inactive) | > 50 µM (inactive) | > 50 µM (inactive) | > 50 µM (inactive) | > 50 µM (inactive) | > 50 µM (inactive) |  | > 50 µM (inactive) | > 50 µM (inactive) | > 50 µM (inactive) | > 50 µM (inactive) | > 50 µM (inactive) |  |  | > 50 µM (inactive) | > 50 µM (inactive) | > 50 µM (inactive)
N#Cc1c(-c2ccc(Cl)cc2)[nH]c(=O)n(C2OC(CO)C(O)C(O)C2O)c1=O (configuration not stated) | > 100 µM (inactive) | > 100 µM (inactive) | > 100 µM (inactive) | 26.2 µM (inactive) | > 100 µM (inactive) | > 100 µM (inactive) | > 100 µM (inactive) | > 100 µM (inactive) | > 100 µM (inactive) | > 100 µM (inactive) | > 100 µM (inactive) |  | > 100 µM (inactive) | > 100 µM (inactive) | 74 µM (inactive) | > 100 µM (inactive) | > 100 µM (inactive) | > 100 µM (inactive) | > 100 µM (inactive)
N#C/C(=C\c1ccccc1Br)C(=O)c1ccccc1 | 31 µM (inactive) | 39.7 µM (inactive) | 29.5 µM (inactive) | > 100 µM (inactive) | > 48.3 µM (inactive) | > 41.1 µM (inactive) | > 91.2 µM (inactive) | 6.95 µM (inactive) | > 40.7 µM (inactive) | > 40.4 µM (inactive) | > 92.9 µM (inactive) | 11.8 µM (inactive) | > 54.3 µM (inactive) |  |  |  |  |  | 
Cc1cc(N(CCC#N)CCC#N)ccc1/C=C1/CN(N2C(=O)/C(=C/c3ccc(N(CCC#N)CCC#N)cc3C)N=C2c2ccccc2)C(c2ccccc2)=N1 | 48.8 µM (inactive) | 34.6 µM (inactive) | > 100 µM (inactive) | 44.6 µM (inactive) | 32 µM (inactive) | > 100 µM (inactive) | 99.5 µM (inactive) | > 100 µM (inactive) | > 100 µM (inactive) | 42.8 µM (inactive) | > 100 µM (inactive) | > 100 µM (inactive) | > 100 µM (inactive) |  |  |  |  |  | 
COC(=O)C1CCc2nnc(-c3ccccc3)n21 (configuration not stated) | > 100 µM (inactive) | > 100 µM (inactive) | > 100 µM (inactive) | > 100 µM (inactive) | > 100 µM (inactive) | > 100 µM (inactive) | > 100 µM (inactive) | > 100 µM (inactive) | > 100 µM (inactive) | > 100 µM (inactive) | > 100 µM (inactive) | > 100 µM (inactive) | > 100 µM (inactive) |  |  |  |  |  | 
CCC(=O)C(C)C(=O)C(=O)C(=O)OC (configuration not stated) | > 100 µM (inactive) | > 100 µM (inactive) | > 100 µM (inactive) | > 100 µM (inactive) | > 47.3 µM (inactive) | > 100 µM (inactive) | > 100 µM (inactive) | > 46.9 µM (inactive) | > 100 µM (inactive) | > 100 µM (inactive) | > 100 µM (inactive) | > 80.7 µM (inactive) | > 100 µM (inactive) |  |  |  |  |  | 
COc1nc2c(nc(N)n2C2OCC(O)C(O)C2O)c(=O)n1C (configuration not stated) | > 100 µM (inactive) | > 100 µM (inactive) | > 100 µM (inactive) | > 100 µM (inactive) | > 100 µM (inactive) | > 100 µM (inactive) | > 100 µM (inactive) | > 100 µM (inactive) | > 100 µM (inactive) | > 100 µM (inactive) | > 100 µM (inactive) | > 100 µM (inactive) | > 100 µM (inactive) |  |  |  |  |  | 
CCCOc1ccc(/C(Cl)=C(\C=O)c2ccc(OC)c(OC)c2)cc1OCCC | 13.7 µM (inactive) | 19.8 µM (inactive) | 3.52 µM (inactive) | 18 µM (inactive) | 5.73 µM (inactive) | 23.9 µM (inactive) | 14.1 µM (inactive) | 3.59 µM (inactive) | 5.43 µM (inactive) | 3.46 µM (inactive) | 7.1 µM (inactive) | 10.5 µM (inactive) | 8.61 µM (inactive) |  |  |  |  |  | 
COC(=O)CCSC(=O)Nc1ccc(/N=N/c2ccccc2)cc1 | 47.9 µM (inactive) | > 100 µM (inactive) | 34.4 µM (inactive) | 95.7 µM (inactive) | 37.5 µM (inactive) | 29.5 µM (inactive) | > 100 µM (inactive) | 50.1 µM (inactive) | 76.4 µM (inactive) | 34.2 µM (inactive) | 31.6 µM (inactive) | 40.5 µM (inactive) | 31.1 µM (inactive) |  |  |  |  |  | 
CC(C)(OCc1ccccc1)c1ccccc1P(c1ccccc1)c1ccccc1 | 44.8 µM (inactive) | 60 µM (inactive) | 47.5 µM (inactive) | 35.2 µM (inactive) | 27.9 µM (inactive) | 46.9 µM (inactive) | > 100 µM (inactive) |  | 38.7 µM (inactive) | 21.7 µM (inactive) | 49.7 µM (inactive) |  | 23.1 µM (inactive) | 50.7 µM (inactive) | 28.4 µM (inactive) | 65 µM (inactive) | 33.3 µM (inactive) | 37.9 µM (inactive) | 82.6 µM (inactive)
Brc1ccc2ns[s+]c2c1 | 4.46 µM (inactive) | 5.05 µM (inactive) | 0.446 µM (active) | 6.73 µM (inactive) | 16 µM (inactive) | 29.1 µM (inactive) | 4.29 µM (inactive) | 1.26 µM (inactive) | 3.6 µM (inactive) | 20.9 µM (inactive) | 3.3 µM (inactive) | 0.659 µM (active) | 3.79 µM (inactive) |  |  |  |  |  | 
CN/N=C(\C(=O)Nc1ccc(C(F)(F)F)cc1[N+](=O)[O-])C(c1cnc2ccc([N+](=O)[O-])cc2n1)[N+](=O)[O-] (configuration not stated) | 37.7 µM (inactive) | 33 µM (inactive) | > 10 µM (inactive) | 64.1 µM (inactive) | 78.5 µM (inactive) | 28.6 µM (inactive) | 25.6 µM (inactive) | 9.77 µM (inactive) | 28 µM (inactive) | 62.7 µM (inactive) | 33.3 µM (inactive) | 12.1 µM (inactive) | 48.6 µM (inactive) |  |  |  |  |  | 
Cc1nnc2sc(-c3ccc(N)cc3)nn12 | > 100 µM (inactive) | > 100 µM (inactive) | > 100 µM (inactive) | > 100 µM (inactive) |  | > 100 µM (inactive) | > 100 µM (inactive) | > 100 µM (inactive) | > 100 µM (inactive) | > 100 µM (inactive) | > 100 µM (inactive) |  | > 100 µM (inactive) | > 100 µM (inactive) | > 100 µM (inactive) | > 100 µM (inactive) | > 100 µM (inactive) | > 100 µM (inactive) | > 100 µM (inactive)
